In patent US20090111801A1, “SUBSTITUTED PYRAZINONE DERIVATIVES FOR USE AS A MEDICINE” (Janssen Pharmaceutica N.V., priority 2006, published 2009):

Experiments:
hα2A receptor = target: T1, hα2A receptor (Homo sapiens, UniProt P08913); experiment: Radioligand binding experiment for α2A-adrenoceptor ([3H]raulwolscine, CHO cell membranes); settings: [3H]raulwolscine binding, read-out: h-α2A pIC50 (converted)
T1 construct: expressed in transfected cells; host or cells: CHO cells, stably transfected; membrane preparation
T1 sequence (P08913 1-465): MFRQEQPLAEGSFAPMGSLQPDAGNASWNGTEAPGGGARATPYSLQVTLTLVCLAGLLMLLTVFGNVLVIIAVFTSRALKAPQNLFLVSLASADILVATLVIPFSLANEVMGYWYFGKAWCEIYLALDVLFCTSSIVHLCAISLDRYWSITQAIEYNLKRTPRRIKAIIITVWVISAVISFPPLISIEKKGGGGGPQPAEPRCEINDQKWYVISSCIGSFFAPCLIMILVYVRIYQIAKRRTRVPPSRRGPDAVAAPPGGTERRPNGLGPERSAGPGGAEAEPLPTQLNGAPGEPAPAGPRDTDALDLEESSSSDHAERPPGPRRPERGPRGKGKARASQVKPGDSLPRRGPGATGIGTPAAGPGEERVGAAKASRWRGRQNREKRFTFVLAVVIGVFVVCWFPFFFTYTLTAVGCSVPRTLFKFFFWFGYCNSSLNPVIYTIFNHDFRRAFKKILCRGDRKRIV

hα2C receptor = target: T2, hα2C receptor (Homo sapiens, UniProt P18825); experiment: Radioligand binding experiment for α2C-adrenoceptor ([3H]raulwolscine, CHO cell membranes); settings: [3H]raulwolscine binding, read-out: h-α2C pIC50 (converted)
T2 construct: expressed in transfected cells; host or cells: CHO cells, stably transfected; membrane preparation
T2 sequence (P18825 1-462): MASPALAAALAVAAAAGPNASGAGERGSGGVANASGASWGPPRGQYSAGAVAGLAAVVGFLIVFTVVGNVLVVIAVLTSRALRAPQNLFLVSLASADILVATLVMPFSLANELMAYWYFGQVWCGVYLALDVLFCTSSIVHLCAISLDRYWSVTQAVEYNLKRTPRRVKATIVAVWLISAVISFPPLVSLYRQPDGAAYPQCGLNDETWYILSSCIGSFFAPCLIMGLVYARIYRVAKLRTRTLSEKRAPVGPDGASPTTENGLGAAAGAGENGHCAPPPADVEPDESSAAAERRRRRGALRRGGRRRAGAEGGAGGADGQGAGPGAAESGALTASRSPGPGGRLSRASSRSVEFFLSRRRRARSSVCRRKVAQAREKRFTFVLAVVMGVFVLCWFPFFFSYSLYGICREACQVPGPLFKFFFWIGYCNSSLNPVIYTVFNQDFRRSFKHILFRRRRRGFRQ

5HT-Transporter = target: T3, 5HT-Transporter (Homo sapiens, UniProt P31645); experiment: Binding experiment for the 5HT-transporter ([3H]paroxetine, human platelet membranes); settings: [3H]paroxetine 0.5 nM, read-out: h-5HTT pIC50 (converted)
T3 construct: Human platelet membranes (Oceanix Biosciences Corporation, Hanover, Md., USA) were thawed; tissue Oceanix Biosciences Corporation, Hanover, Md., USA; host or cells: human platelet membranes
How it was run: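 Competition binding of [3H]paroxetine to human platelet membranes in Tris-HCl 50 mM, 120 mM NaCl, 5 mM KCl, with filtration and scintillation counting.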

T3 sequence (P31645 whole entry): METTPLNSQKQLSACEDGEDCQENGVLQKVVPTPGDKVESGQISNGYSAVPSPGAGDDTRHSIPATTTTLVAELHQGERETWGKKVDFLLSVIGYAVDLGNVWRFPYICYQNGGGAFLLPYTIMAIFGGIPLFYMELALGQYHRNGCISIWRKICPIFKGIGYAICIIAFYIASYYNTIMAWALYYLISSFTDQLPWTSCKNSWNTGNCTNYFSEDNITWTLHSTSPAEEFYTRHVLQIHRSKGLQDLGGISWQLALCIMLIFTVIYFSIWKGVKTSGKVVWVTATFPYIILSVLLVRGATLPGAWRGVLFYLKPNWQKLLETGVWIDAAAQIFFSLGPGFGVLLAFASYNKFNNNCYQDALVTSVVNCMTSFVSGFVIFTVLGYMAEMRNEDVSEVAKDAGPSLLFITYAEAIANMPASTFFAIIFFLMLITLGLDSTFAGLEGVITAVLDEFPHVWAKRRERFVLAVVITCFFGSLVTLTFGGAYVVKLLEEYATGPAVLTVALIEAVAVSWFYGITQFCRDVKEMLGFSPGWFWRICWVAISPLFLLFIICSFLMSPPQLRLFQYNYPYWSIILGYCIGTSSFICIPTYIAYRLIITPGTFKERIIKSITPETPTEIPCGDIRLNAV

| SMILES | IC50 (hα2A receptor) [nM] | IC50 (hα2C receptor) [nM] | IC50 (5HT-Transporter) [nM] |
| --- | --- | --- | --- |
| C/C(=C\c1ccccc1)CN1CCC(Nc2nccn(Cc3ccc(S(C)(=O)=O)cc3)c2=O)CC1 [5-26] | 126 | 25.1 | 1260 |
| C/C(=C\c1ccccc1)CN1CCC(Nc2nccn(CCc3ccccc3)c2=O)CC1 [5-27] | 100 | 15.8 | 398 |
| C/C(=C\c1ccccc1)CN1CCC(Nc2nccn(C/C=C/c3ccccc3)c2=O)CC1 [5-28] | 158 | 63.1 | 501 |
| C/C(=C\c1ccccc1)CN1CCC(Nc2nccn(CC(=O)c3ccccc3)c2=O)CC1 [5-29] | 15.8 | 10 | 794 |
| C/C(=C\c1ccccc1)CN1CCC(Nc2nccn(-c3ccc(-c4ccccc4)cc3)c2=O)CC1 [5-30] | 25.1 | 7.94 | 398 |
| C/C(=C\c1ccccc1)CN1CCC(Nc2nccn(Cc3ccccc3-c3ccccc3)c2=O)CC1 [5-31] | 100 | 20 | 200 |
| C/C(=C\c1ccccc1)CN1CCC(Nc2nccn(Cc3ccc(-c4ccccc4)cc3)c2=O)CC1 [5-32] | 316 | 126 | 316 |
| C/C(=C\c1ccccc1)CN1CCC(Nc2nccn(CC(=O)c3cccc(-c4ccccc4)c3)c2=O)CC1 [5-33] | 79.4 | 100 | 1260 |
| C/C(=C\c1ccccc1)CN1CCC(Nc2nccn(Cc3cccc4ccccc34)c2=O)CC1 [5-34] | 100 | 25.1 | 398 |
| C/C(=C\c1ccccc1)CN1CCC(Nc2nccn(Cc3ccc4ccccc4c3)c2=O)CC1 [5-35] | 63.1 | 39.8 | 398 |
| C/C(=C\c1ccccc1)CN1CCC(Nc2nccn(CC3CCCCO3)c2=O)CC1 (stereo not drawn) [6-1] | 126 | 20 | 1000 |
| C/C(=C\c1ccccc1)CN1CCC(Nc2nccn(Cc3ccco3)c2=O)CC1 [6-2] | 126 | 25.1 | 1260 |
| C/C(=C\c1ccccc1)CN1CCC(Nc2nccn(-c3nccs3)c2=O)CC1 [6-5] | 50.1 | 7.94 | 316 |
| C/C(=C\c1ccccc1)CN1CCC(Nc2nccn(Cc3csc(C)n3)c2=O)CC1 [6-6] | 126 | 20 | 3160 |
| C/C(=C\c1ccccc1)CN1CCC(Nc2nccn(Cc3csc(C)n3)c2=O)CC1 [6-7] | 251 | 39.8 | 2000 |
| C/C(=C\c1ccccc1)CN1CCC(Nc2nccn(Cc3cnc(C)s3)c2=O)CC1 [6-8] | 158 | 25.1 | 3980 |
| C/C(=C\c1ccccc1)CN1CCC(Nc2nccn(-c3cccnc3)c2=O)CC1 [6-11] | 251 | 25.1 | 3980 |
| C/C(=C\c1ccccc1)CN1CCC(Nc2nccn(-c3ccncc3)c2=O)CC1 [6-12] | 50.1 | 7.94 | 1580 |

| SMILES | IC50 (hα2A receptor) [nM] | IC50 (hα2C receptor) [nM] | IC50 (5HT-Transporter) [nM] |
| --- | --- | --- | --- |
| C/C(=C\c1ccccc1)CN1CCC(Nc2nccn(Cc3ccccn3)c2=O)CC1 [6-13] | 200 | 31.6 | 3980 |
| C/C(=C\c1ccccc1)CN1CCC(Nc2nccn(Cc3ccncc3)c2=O)CC1 [6-14] | 158 | 39.8 | 2510 |
| C/C(=C\c1ccccc1)CN1CCC(Nc2nccn(CC(=O)c3ccc4c(c3)NC(=O)CO4)c2=O)CC1 [6-15] | 15.8 | 20 | 1000 |
| C/C(=C\c1ccccc1)CN1CCC(Nc2nccn(-c3cnc4ccccc4c3)c2=O)CC1 [6-16] | 63.1 | 15.8 | 316 |
| C/C(=C\c1ccccc1)CN1CCC(Nc2nccn(Cc3ccc4ccccc4n3)c2=O)CC1 [6-17] | 79.4 | 15.8 | 316 |
| CCn1ccnc(NC2CCN(C/C(C)=C/c3ccccc3)CC2)c1=O [7-3] | 63.1 | 15.8 | 3980 |
| CCCn1ccnc(NC2CCN(C/C(C)=C/c3ccccc3)CC2)c1=O [7-4] | 25.1 | 12.6 | 631 |
| CCCCCn1ccnc(NC2CCN(C/C(C)=C/c3ccccc3)CC2)c1=O [7-5] | 100 | 31.6 | 251 |
| C/C(=C\c1ccccc1)CN1CCC(Nc2nccn(CC3CCCCC3)c2=O)CC1 [7-6] | 200 | 50.1 | 1580 |
| C/C(=C\c1ccccc1)CN1CCC(Nc2nccn(CC(=O)C(C)(C)C)c2=O)CC1 [7-8] | 126 | 12.6 | > 10000 |
| C/C(=C\c1ccccc1)CN1CCC(Nc2nccn(CC(=O)C(C)(C)C)c2=O)CC1 [7-9] | 79.4 | 7.94 | 5010 |
| C/C(=C\c1ccccc1)CN1CCC(Nc2nccn(CC(=O)C34CC5CC(CC(C5)C3)C4)c2=O)CC1 [7-10] | 50.1 | 10 | 1260 |
| C/C(=C\c1ccccc1)CN1CCN(c2nccn(Cc3ccc(CN)cc3)c2=O)CC1 [8-1] | 39.8 | 12.6 | 1000 |
| C/C(=C\c1ccccc1)CN1CCN(c2nccn(CC(=O)N(C)C)c2=O)CC1 [8-2] | 1580 | 158 | > 10000 |
| C/C(=C\c1ccccc1)CN1CCN(c2nccn(CCCNC(=O)OC(C)(C)C)c2=O)CC1 [8-3] | 398 | 79.4 | 2510 |
| C/C(=C\c1ccccc1)CN1CCN(c2nccn(Cc3ccc(CNC(=O)OC(C)(C)C)cc3)c2=O)CC1 [8-4] | 158 | 79.4 | 1260 |
| C/C(=C\c1ccccc1)CN1CCN(c2nccn(CCN3CCOCC3)c2=O)CC1 [9-2] | 1000 | 200 | 7940 |
| CSCCn1ccnc(N2CCN(C/C(C)=C/c3ccccc3)CC2)c1=O [11-1] | 316 | 79.4 | 6310 |

Other lines, results leading:

| IC50 (hα2A receptor) [nM] | IC50 (hα2C receptor) [nM] | IC50 (5HT-Transporter) [nM] | SMILES |
| --- | --- | --- | --- |
| 316 | 79.4 | 7940 | COCCCn1ccnc(N2CCN(C/C(C)=C/c3ccccc3)CC2)c1=O [10-1] |
| 251 | 100 | 1260 | C/C(=C\c1ccccc1)CN1CCN(c2nccn(CCOc3ccccc3)c2=O)CC1 [10-2] |
| 398 | 79.4 | 1260 | C/C(=C\c1ccccc1)CN1CCN(c2nccn(CCOCc3ccccc3)c2=O)CC1 [10-3] |
| 63.1 | 63.1 | 3160 | C/C(=C\c1ccccc1)CN1CCN(c2nccn(Cc3ccccc3)c2=O)CC1 [12-1] |
| 200 | 63.1 | 1260 | C/C(=C\c1ccccc1)CN1CCN(c2nccn(CCCc3ccccc3)c2=O)CC1 [12-2] |
| 398 | 126 | 1260 | C/C(=C\c1ccccc1)CN1CCN(c2nccn(C/C=C/c3ccccc3)c2=O)CC1 [12-3] |
| 316 | 50.1 | 3980 | C/C(=C\c1ccccc1)CN1CCN(c2nccn(CC(=O)c3ccccc3)c2=O)CC1 [12-5] |
| 398 | 251 | 2000 | C/C(=C\c1ccccc1)CN1CCN(c2nccn(CC(=O)c3ccc(-c4ccccc4)cc3)c2=O)CC1 [12-6] |
| 126 | 126 | 1000 | C/C(=C\c1ccccc1)CN1CCN(c2nccn(Cc3ccc4ccccc4c3)c2=O)CC1 [12-7] |
| 50.1 | 63.1 | 6310 | C/C(=C\c1ccccc1)CN1CCN(c2nccn(Cc3ccco3)c2=O)CC1 [13-1] |
| 79.4 | 39.8 | 3980 | C/C(=C\c1ccccc1)CN1CCN(c2nccn(Cc3ccc(Cl)s3)c2=O)CC1 [13-2] |
| 316 | 79.4 | 6310 | C/C(=C\c1ccccc1)CN1CCN(c2nccn(Cc3csc(C)n3)c2=O)CC1 [13-3] |
| 63.1 | 63.1 | 398 | COc1ccc(-c2nnc(Cn3ccnc(N4CCN(C/C(C)=C/c5ccccc5)CC4)c3=O)o2)cc1 [13-4] |
| 158 | 39.8 | 3980 | C/C(=C\c1ccccc1)CN1CCN(c2ncc[nH]c2=O)CC1 [14-1] |
